Experimental data reported in patent publication US20100248229A1, “INVITRO HUMAN EMBRYONIC MODEL AND A METHOD THEREOF” (Stempeutics Research Private Limited, priority 2007, published 2010).
“Also recorded” adds a separate entry of the source.

Columns and labels:
[1] = test system: EBs derived from hESC line HUES9; assay: RT-PCR of germ lineage markers and HMGB1 in LPS-exposed HUES9 EBs; assay type: cell-based, human
Description: EBs derived from the human embryonic stem cell (hESC) line HUES9 were exposed to 12.5 pg/ml of LPS for 48 hrs. The expression profile of the ectoderm, endoderm, mesoderm and trophectoderm lineage markers like βIII-tubulin, GATA4, BMP2, Brachury and β-hCG were studied, by RT-PCR and Immunofluorescence. Inhibition of mesoderm induction was confirmed by RT-PCR analysis for hANP, cTnT, ABCG2, GATA2, BMP4 and HAND1. Osteoblast differentiation was induced in the EBs, and confirmed by von Kosa and Alizarin red staining. A comet assay was also done to assess the degree of apoptosis in these EBs.
(§1) Exposure of EBs to LPS: EBs at day-2.5 were exposed to 12.5 pg/ml of Endotoxin/lipopolysaccharide (LPS) (Sigma) for 48 hrs supplemented in culture medium. The normal and the endotoxin treated EBs were harvested on day 4.5. Post exposure, the control and endotoxin treated EBs were divided in two groups. One group was lysed in TRIZOL for RNA isolation and the other group was fixed in 4% paraformaldehyde for immunofluorescence. The expression profile of the ectoderm, endoderm, mesoderm and trophectoderm lineage markers like PHI-tubulin, GATA4, BMP2, Brachury and β-hCG etc. were studied by RT-PCR and Immunofluorescence. The expression of the LPS-inducible and pluripotency related DNA binding protein HMGB1 was also studied in both the control and treated EBs.
(§2) RT-PCR: Total RNA from cells was isolated using TRIZOL-LS Reagent (Invitrogen) as per the manufacturer's protocol. Complementary DNA was synthesized using the SuperScript III First-Strand Synthesis System (Invitrogen) as per the manufacturer's instructions. Polymerase Chain Reaction (PCR) was carried out using 1U Tag DNA Polymerase (Sigma) and MgCl2 to a final concentration of 1.5 mM in a total volume of 25 μl/reaction. β-actin and GAPDH were used as the housekeeping controls. PCR cycles consisted of an initial denaturation at 95° C. for 5 minutes followed by 35 amplification cycles of denaturation at 94° C. for 45 seconds, annealing for 45 seconds, and extension at 72° C. for 45 seconds and final extension at 72° C. for 10 minutes.

EBs = assay: Effect on the germ lineages: RT-PCR of pluripotency and lineage markers in four day old EBs; assay type: cell-based, human; conditions: 12 pg/ml for 2 to 4 days
Experimental: Day 4 to 10 old EBs were maintained for 2 to 10 days in presence or absence of various (atleast 8 different) dilutions of the drug supplemented to the standard EB culture media. At the end of the incubation period the EBs were collected and the RNA is isolated from both the control and treated groups. The RNA was used for RT-PCR analysis of a set of developmentally important genes, pluripotency markers like (Nanog, Oct4, Sox2, and HMGB 1), lineage markers for ectoderm, endoderm, mesoderm and trophectoderm listed in table 1, 2, 3, 4, and also for a set of epigenetic signature genes (table nos. 6-7) identified by applicant. Alteration in the expression patterns of these genes in presence or absence of the compound in these EBs indicates their embryotoxic effect and potential to perturb the formation of specific or multiple lineages.
Four day old EBs were exposed to gram negative bacterial endotoxins/LPS at a concentration of 12 pg/ml for 2 to 4 days. The EBs were collected and analysed for pluripotency markers like Oct4, Sox2, HMGB1, and lineage markers like Nestin, PIII-tubulin, GATA4, BMP2, Brachury, Hand1 and BMP4 were studied, by RT-PCR. […] HMGB 1 expression was not found in these normal EBs. […] However, the mesoderm markers BMP2, Hand1, BMP4 and Brachury were silenced in the endotoxin treated EBs. […] This also explains many birth defects, which occurs as a result of gram negative bacterial infections. The expression of the LPS inducible cytokine and pluripotency associated gene HMGB1 in the EBs upon LPS exposure indicate its probable role in the formation of poorly formed embryos during such infections.

[2] = test system: EBs derived from hESC line HUES9; assay: Morphology of EBs under the microscope; assay type: cell-based, human; conditions: 12.5 pg/ml for 48 hrs, day 4.5
Description: as §1
The HUES9 cells were harvested on day 5 and used for induction of EBs. The control EBs were collected on day 4.5 of culture (FIG. 4b). The LPS treated EBs were also collected on day 4.5 and were compared with the normal for morphological changes under the microscope (FIG. 4c). […] The normal and LPS treated EBs were screened for pluripotency and the germ lineage markers. […] HMGB1 mRNA expression was not found in the normal EBs (FIG. 5). […] Immunofluorescence localization of HMGB1 and the mesoderm marker Brachury was done to check the protein expressions. […]

[3] = test system: hematopoietic precursor cells; conditions: report [21]; cited from earlier work
HUES 9 EB = assay: Expression profiles of lineage, pluripotency, epigenetic and imprinted genes in day 4.5 spherical EBs (HUES 9); assay type: cell-based, human; design: key: The sign ‘+’ indicates expression of the gene; the sign “−” indicates non-expression of the gene; conditions: HUES 9 EB D4.5 LPS
Experimental: as §2
Examples of changes in the expression profiles/patterns of lineage markers, pluripotency markers, epigenetic markers and imprinted genes, in day 4.5 spherical cavitating/cytic embryoid bodies upon exposure to compounds like lipopolysaccharide (LPS), Rho kinase inhibitor (Y27632), Azacytidine (Aza), and biologicals like an Uvomorulin antibody (UVO) are given in the table nos. 9-12 below. The sign ‘+’ indicates expression of the gene and the sign “−” indicates non-expression of the gene.

[4] = 12.5 pg/ml for 48 hrs, EBs harvested day 4.5

With lipopolysaccharide [LPS] the “expression of mesoderm markers (Brachury, BMP2, hANP, cTnT, ABCG2, GATA2, BMP4, HAND1)” value ([1]; 12.5 pg/ml for 48 hrs) was “no expression; also recorded: selectively silenced; also recorded: specific silencing”, the “mRNA expression of HMGB1, βIII-tubulin, GATA4 and β-hCG” value [1, 4] was “positive mRNA expression” and the “mRNA expression of mesoderm markers BMP4, GATA2, ABCG2, cTnT, hANP and HAND1” value [1, 4] was “absence of mRNA expressions”. For the same substance, the “mRNA expression of mesoderm markers Brachury and BMP2” value [1, 4] was “no mRNA expressions”, the “HMGB1 expression in EBs” value ([1]; 12.5 pg/ml for 48 hrs, not expressed in normal EBs) was “positive or induced expression; also recorded: induced” and the “functional mesoderm formation in EBs” value ([1]; exposure for 48 hrs) was “inhibited”. The “expression of Nestin, βIII-tubulin and GATA4 (RT-PCR)” value (EBs) was “positive expression”, the “expression of mesoderm markers BMP2, Hand1, BMP4 and Brachury (RT-PCR)” value (EBs) was “silenced” and the “expression of HMGB1 (RT-PCR)” value (EBs; not found in normal EBs) was “positive expression”. The “morphology (shape, size or numbers) of treated vs normal EBs” value [2] was “did not show any visible morphological differences”, the “concentration enough to cause alterations in the proliferation of hematopoietic precursor cells in culture” value [3] was 2 to 5 pg/mL and the ABCG2 gene expression (HUES 9 EB; control +) was “−”. The BMP4 gene expression (HUES 9 EB; control +) was “−”, the BRACHURY gene expression (HUES 9 EB; control +) was “−” and the CDH1 gene expression (HUES 9 EB; control +) was “−”. For the same substance, the Dlk1 gene expression (HUES 9 EB; control +) was “−”, the GATA2 gene expression (HUES 9 EB; control +) was “−” and the HAND1 gene expression (HUES 9 EB; control +) was “−”. The SDHD gene expression (HUES 9 EB; control +) was “−”, the cTNT gene expression (HUES 9 EB; control +) was “−” and the hANP gene expression (HUES 9 EB; control +) was “−”. The DPYS gene expression (HUES 9 EB; control −) was “+” and the HMGB1 gene expression (HUES 9 EB; control −) was “+”.
